# Results as given in US5641804A, “Fungicidal compound comprising a cyclic polylactone” (Novo Nordisk A/S, priority 1992, dated 1997).
# Assays:
# Phoma betae = assay: Agar well inhibition zone, Phoma betae (Pb); type: cell-based; conditions: Neocamarosporium betae, 72 h, 15 μl per well, 3 days at 25° C.
# Protocol: Phoma betae (Pb) seedling black rot, black leg
# (§1) Each of the above mentioned 9 pathogens were separately innoculated into 100 ml of potato dextrose (PD) bouillon and shaken at 200 rpm at 25° C. for 7 days. The mycelium was harvested and homogenized for about 10 seconds in a Warring blender and 1-5 ml of the blended mycelium was transferred to petri dishes with a diameter of 14 cm. […] 20 ml of potato dextrose agar (PDA) having a temperature of 45° C. were poured into each of the petri dishes and thorougly mixed with the blended mycelium present therein. When the agar had solidified, wells of a diameter of 4 mm were punched in the agar, and 15 μl of test solutions containing varicus concentrations of compound Ia, Ib and IIa dissolved in ethanol was applied to each well. The plates were incubated for three days at 25° C. and the inhibition zones measured (in mm). […]
# Botrytis cinerea [1] = assay: Fungicidal activity in vivo against Botrytis cinerea on sprayed plants; conditions: spray to run off, assessed after 6 days
# Protocol: Activity of the compounds Ia and Ib against Botrytis cinerea Host: Lycopersicon esculentum (tomato, var. First in Field) […] plants (5 weeks old) were sprayed to run off with liquid solutions using a handhold sprayer (Bink Bullows 900). The solution (70% EtOH) had different concentrations of the compounds Ia and Ib. The plants were kept 24 hours in a green house to dry before they were inoculated with a spore suspension containing 1×10^5 spores/ml in 25% grape juice. The inoculation was carried out with a handhold atomizer (Wagner, Pico Bel). The plants were then incubated (16 hours light (1000 lux) and 8 hours dark) at 15°-20° C. in clear polyethylene bags to raise the relative humidity to 95-100%. After 6 days the assessment was done.
# plant pathogenic fungi = assay: In vitro fungicidal activity spectrum over the pathogens tested; type: cell-based
# Protocol: The following pathogens were used:
# (§2) Each of the above mentioned 9 pathogens were separately innoculated into 100 ml of potato dextrose (PD) bouillon and shaken at 200 rpm at 25° C. for 7 days. The mycelium was harvested and homogenized for about 10 seconds in a Warring blender and 1-5 ml of the blended mycelium was transferred to petri dishes with a diameter of 14 cm. […] 20 ml of potato dextrose agar (PDA) having a temperature of 45° C. were poured into each of the petri dishes and thorougly mixed with the blended mycelium present therein. When the agar had solidified, wells of a diameter of 4 mm were punched in the agar, and 15 μl of test solutions containing varicus concentrations of compound Ia, Ib and IIa dissolved in ethanol was applied to each well. The plates were incubated for three days at 25° C. and the inhibition zones measured (in mm).
# (§3) The experiments were repeated and in the second run, Bc plates were made from Bc spores (the plates were termed Bc2) as such plates may result in a more uniform growth.
# Botrytis cinerea [2] = assay: Agar well inhibition zone, Botrytis cinerea, plates made from spores (Bc2); type: cell-based
# Protocol: (§4) Botrytis cinerea (Bc) grey mould
# as §2, §3
# Monilinia fructigena = assay: Agar well inhibition zone, Monilinia fructigena (Mf); type: cell-based; conditions: Monilinia fructigena, 72 h, 15 μl per well, 3 days at 25° C.
# Protocol: Monilinia fructigena (Mf) brown rot, fruit rot
# as §1
# [3] = tested on: mouse peritoneal macrophage; assay: Mouse peritoneal macrophage assay, cellular ATP (viability); type: cell-based
# Botrytis cinerea [4] = assay: Agar well inhibition zone, Botrytis cinerea, mycelium plates (Bc1); type: cell-based; parameters: key to inhibition zone Bc1: clear; diffuse; very diffuse; +: very weak; conditions: 15 μl per well, 3 days at 25° C.
# Protocol: as §4, §1
# Pyrenophora teres = assay: Agar well inhibition zone, Pyrenophora teres (Pt); type: cell-based; parameters: key to inhibition zone Pt: clear; diffuse; very diffuse; +: very weak; conditions: 15 μl per well, 3 days at 25° C.
# Protocol: Pyrenophora teres (Pt) net blotch disease
# as §1
# Phoma lingam = assay: Agar well inhibition zone, Phoma lingam (Pl); type: cell-based; conditions: Plenodomus lingam, 72 h, 15 μl per well, 3 days at 25° C., read-out: inhibition zone P1
# Protocol: Phoma lingam (Pl) canker and dry rot
# as §1
# Sclerotinia sclerotiorum = assay: Agar well inhibition zone, Sclerotinia sclerotiorum (Ss); type: cell-based; conditions: Sclerotinia sclerotiorum, 72 h, 15 μl per well, 3 days at 25° C.
# Protocol: Sclerotinia sclerotiorum (Ss) white mould disease, stem rot
# as §1
# [5] = tested on: mouse peritoneal macrophage; assay: Mouse peritoneal macrophage assay, chemiluminescence (phagocytosis); type: cell-based
# Alternaria alternata = assay: Agar well inhibition zone, Alternaria alternata (Aa); type: cell-based; conditions: Alternaria alternata, 72 h, 15 μl per well, 3 days at 25° C.
# Protocol: Alternaria alternata (Aa) black mould coverings, leaf spot
# as §2, §3
# Ascochyta pisi = assay: Agar well inhibition zone, Ascochyta pisi (Ap); type: cell-based; conditions: Ascochyta pisi, 72 h, 15 μl per well, 3 days at 25° C.
# Protocol: Ascochyta pisi (Ap) leaf, stem and pod rot
# as §1
smiles,measurement,setting,value
C[C@@H]1Cc2cc(O)cc(O)c2C(=O)O[C@H](C)CC(=O)O[C@H](CO)CC(=O)O[C@H](C)Cc2cc(O)cc(O)c2C(=O)O[C@H](C)CC(=O)O1 [Compound Ia],zone of inhibition at 10 µg/mL,Phoma betae; 0.01 mg/ml,0 mm
same,zone of inhibition at 50 µg/mL,Phoma betae; 0.05 mg/ml,0 mm
same,zone of inhibition at 500 µg/mL,Phoma betae; 0.5 mg/ml,0 mm
same,zone of inhibition at 1000 µg/mL,Phoma betae; 1.0 mg/ml,0 mm
same,protection,Botrytis cinerea [1]; 37 ppm,approx. 10%
same,protection,Botrytis cinerea [1]; 375 ppm,approx. 60%
same,protection,Botrytis cinerea [1]; 1000 ppm,approx. 60%
same,activity spectrum,"plant pathogenic fungi; all pathogens tested, Table 2",more effective than the compound of formula IIa
same,number of pathogens against which compound was active,plant pathogenic fungi; with respect to Bc only for the plate containing spores,5 pathogens
same,appearance of Bc zones,Botrytis cinerea [2]; Bc plates,very diffuse
same,time of incubation after which Bc zones could be seen,Botrytis cinerea [2]; Bc plates,≥ 3 days
same,zone of inhibition at 50 µg/mL,"Botrytis cinerea [2]; Botrytis cinerea, 72 h, 0.05 mg/ml, 15 μl per well, 3 days at 25° C., plates from spores",12 mm
same,zone of inhibition at 500 µg/mL,"Botrytis cinerea [2]; Botrytis cinerea, 72 h, 0.5 mg/ml, 15 μl per well, 3 days at 25° C., plates from spores",48 mm
same,zone of inhibition at 1000 µg/mL,"Botrytis cinerea [2]; Botrytis cinerea, 72 h, 1.0 mg/ml, 15 μl per well, 3 days at 25° C., plates from spores",56 mm
same,zone of inhibition at 10 µg/mL,Monilinia fructigena; 0.01 mg/ml,20 mm
same,zone of inhibition at 50 µg/mL,Monilinia fructigena; 0.05 mg/ml,34 mm
same,zone of inhibition at 500 µg/mL,Monilinia fructigena; 0.5 mg/ml,45 mm
same,zone of inhibition at 1000 µg/mL,Monilinia fructigena; 1.0 mg/ml,50 mm
same,IC50,[3],2.5 µg/mL
same,inhibition zone Bc1,Botrytis cinerea [4]; 0.05 mg/ml,+
same,inhibition zone Bc1,Botrytis cinerea [4]; 0.5 mg/ml,+
same,inhibition zone Bc1,Botrytis cinerea [4]; 1.0 mg/ml,+
same,zone of inhibition at 10 µg/mL,"Botrytis cinerea [4]; Botrytis cinerea, 72 h, 0.01 mg/ml",0 mm
same,inhibition zone Pt,Pyrenophora teres; 0.05 mg/ml,+
same,zone of inhibition at 10 µg/mL,"Pyrenophora teres; Pyrenophora teres, 72 h, 0.01 mg/ml",0 mm
same,zone of inhibition at 500 µg/mL,"Pyrenophora teres; Pyrenophora teres, 72 h, 0.5 mg/ml",35 mm
same,zone of inhibition at 1000 µg/mL,"Pyrenophora teres; Pyrenophora teres, 72 h, 1.0 mg/ml",40 mm
same,zone of inhibition at 10 µg/mL,Phoma lingam; 0.01 mg/ml,0 mm
same,zone of inhibition at 50 µg/mL,Phoma lingam; 0.05 mg/ml,18 mm
same,zone of inhibition at 500 µg/mL,Phoma lingam; 0.5 mg/ml,42 mm
same,zone of inhibition at 1000 µg/mL,Phoma lingam; 1.0 mg/ml,49 mm
same,zone of inhibition at 10 µg/mL,Sclerotinia sclerotiorum; 0.01 mg/ml,0 mm
same,zone of inhibition at 50 µg/mL,Sclerotinia sclerotiorum; 0.05 mg/ml,24 mm
same,zone of inhibition at 500 µg/mL,Sclerotinia sclerotiorum; 0.5 mg/ml,42 mm
same,zone of inhibition at 1000 µg/mL,Sclerotinia sclerotiorum; 1.0 mg/ml,50 mm
same,IC50,[5],2 µg/mL
same,zone of inhibition at 10 µg/mL,Alternaria alternata; 0.01 mg/ml,0 mm
same,zone of inhibition at 50 µg/mL,Alternaria alternata; 0.05 mg/ml,0 mm
same,zone of inhibition at 500 µg/mL,Alternaria alternata; 0.5 mg/ml,0 mm
same,zone of inhibition at 1000 µg/mL,Alternaria alternata; 1.0 mg/ml,0 mm
same,zone of inhibition at 10 µg/mL,Ascochyta pisi; 0.01 mg/ml,0 mm
same,zone of inhibition at 50 µg/mL,Ascochyta pisi; 0.05 mg/ml,0 mm
same,zone of inhibition at 500 µg/mL,Ascochyta pisi; 0.5 mg/ml,0 mm
same,zone of inhibition at 1000 µg/mL,Ascochyta pisi; 1.0 mg/ml,0 mm
